Test results taken from the NIST ThermoML archive (doi:10.1016/j.jct.2018.08.004).

Test: xn = mol fraction of the nth substance listed
Conditions: for surface tension liquid-gas: Maximal bubble pressure; for mass density: 100 kPa, Liquid, Vibrating tube method

CCCC[n+]1ccccc1.N#C[N-]C#N [1-butylpyridinium dicyanamide] + CC(C)O
Conditions | mass density [kg/m3] | surface tension liquid-gas [mN/m]
288.15 K, x1 = 0.1008 | 857.57 | 23.3
288.15 K, x1 = 0.2007 | 906.69 | 25.7
288.15 K, x1 = 0.3005 | 944.56 | 26.9
288.15 K, x1 = 0.3999 | 974.5 | 28.5
288.15 K, x1 = 0.5005 | 999.39 | 30.5
288.15 K, x1 = 0.5998 | 1019.53 | 33.2
288.15 K, x1 = 0.7004 | 1036.66 | 35.9
288.15 K, x1 = 0.7972 | 1050.66 | 39.9
288.15 K, x1 = 0.9032 | 1063.81 | 45.5
288.15 K, x1 = 1 | 1074.97 | 56.3
293.15 K, x1 = 0.1008 | 853.79 | 22.8
293.15 K, x1 = 0.2007 | 903.11 | 25.2
293.15 K, x1 = 0.3005 | 941.13 | 26.7
293.15 K, x1 = 0.3999 | 971.16 | 28
293.15 K, x1 = 0.5005 | 996.12 | 30.2
293.15 K, x1 = 0.5998 | 1016.32 | 32.9
293.15 K, x1 = 0.7004 | 1033.49 | 35.7
293.15 K, x1 = 0.7972 | 1047.51 | 39.6
293.15 K, x1 = 0.9032 | 1060.69 | 45.2
293.15 K, x1 = 1 | 1071.9 | 56
298.15 K, x1 = 0.1008 | 849.98 | 22.3
298.15 K, x1 = 0.2007 | 899.51 | 24.8
298.15 K, x1 = 0.3005 | 937.68 | 26.2
298.15 K, x1 = 0.3999 | 967.82 | 27.8
298.15 K, x1 = 0.5005 | 992.86 | 29.9
298.15 K, x1 = 0.5998 | 1013.12 | 32.5
298.15 K, x1 = 0.7004 | 1030.32 | 35.3
298.15 K, x1 = 0.7972 | 1044.37 | 39.3
298.15 K, x1 = 0.9032 | 1057.57 | 44.9
298.15 K, x1 = 1 | 1068.83 | 55.7
303.15 K, x1 = 0.1008 | 846.14 | 22
303.15 K, x1 = 0.2007 | 895.9 | 24.5
303.15 K, x1 = 0.3005 | 934.24 | 25.9
303.15 K, x1 = 0.3999 | 964.49 | 27.5
303.15 K, x1 = 0.5005 | 989.61 | 29.6
303.15 K, x1 = 0.5998 | 1009.92 | 32.3
303.15 K, x1 = 0.7004 | 1027.16 | 35.1
303.15 K, x1 = 0.7972 | 1041.24 | 39.1
303.15 K, x1 = 0.9032 | 1054.46 | 44.7
303.15 K, x1 = 1 | 1065.76 | 55.5
308.15 K, x1 = 0.1008 | 842.28 | 21.6
308.15 K, x1 = 0.2007 | 892.3 | 24.1
308.15 K, x1 = 0.3005 | 930.8 | 25.5
308.15 K, x1 = 0.3999 | 961.18 | 27.1
308.15 K, x1 = 0.5005 | 986.37 | 29.3
308.15 K, x1 = 0.5998 | 1006.74 | 32
308.15 K, x1 = 0.7004 | 1024.02 | 34.8
308.15 K, x1 = 0.7972 | 1038.13 | 38.8
308.15 K, x1 = 0.9032 | 1051.37 | 44.4
308.15 K, x1 = 1 | 1062.7 | 55.2
313.15 K, x1 = 0.1008 | 838.39 | 21.3
313.15 K, x1 = 0.2007 | 888.69 | 23.8
313.15 K, x1 = 0.3005 | 927.36 | 25.2
313.15 K, x1 = 0.3999 | 957.86 | 26.8
313.15 K, x1 = 0.5005 | 983.14 | 29
313.15 K, x1 = 0.5998 | 1003.56 | 31.7
313.15 K, x1 = 0.7004 | 1020.89 | 34.5
313.15 K, x1 = 0.7972 | 1035.03 | 38.5
313.15 K, x1 = 0.9032 | 1048.3 | 44.1
313.15 K, x1 = 1 | 1059.66 | 54.9
318.15 K, x1 = 0.1008 | 834.48 | 20.8
318.15 K, x1 = 0.2007 | 885.06 | 23.4
318.15 K, x1 = 0.3005 | 923.93 | 24.9
318.15 K, x1 = 0.3999 | 954.55 | 26.5
318.15 K, x1 = 0.5005 | 979.93 | 28.6
318.15 K, x1 = 0.5998 | 1000.4 | 31.4
318.15 K, x1 = 0.7004 | 1017.77 | 34.2
318.15 K, x1 = 0.7972 | 1031.94 | 38.2
318.15 K, x1 = 0.9032 | 1045.24 | 43.8
318.15 K, x1 = 1 | 1056.64 | 54.5

CCCC[n+]1ccccc1.N#C[N-]C#N [1-butylpyridinium dicyanamide] + CCCO
Conditions | mass density [kg/m3] | surface tension liquid-gas [mN/m]
288.15 K, x1 = 0.1001 | 872.25 | 26.5
288.15 K, x1 = 0.2008 | 919.12 | 27.9
288.15 K, x1 = 0.3008 | 954.79 | 29.5
288.15 K, x1 = 0.4009 | 982.76 | 31.7
288.15 K, x1 = 0.4994 | 1005.24 | 33.1
288.15 K, x1 = 0.5998 | 1023.96 | 35.7
288.15 K, x1 = 0.6976 | 1039.92 | 38.4
288.15 K, x1 = 0.7974 | 1052.61 | 41.2
288.15 K, x1 = 0.903 | 1064.59 | 45.8
288.15 K, x1 = 1 | 1074.97 | 56.3
293.15 K, x1 = 0.1001 | 868.53 | 26.1
293.15 K, x1 = 0.2008 | 915.57 | 27.6
293.15 K, x1 = 0.3008 | 951.37 | 29.1
293.15 K, x1 = 0.4009 | 979.42 | 31.3
293.15 K, x1 = 0.4994 | 1001.98 | 32.8
293.15 K, x1 = 0.5998 | 1020.75 | 35.3
293.15 K, x1 = 0.6976 | 1036.74 | 38
293.15 K, x1 = 0.7974 | 1049.46 | 41
293.15 K, x1 = 0.903 | 1061.47 | 45.6
293.15 K, x1 = 1 | 1071.9 | 56
298.15 K, x1 = 0.1001 | 864.79 | 25.6
298.15 K, x1 = 0.2008 | 912.01 | 27.1
298.15 K, x1 = 0.3008 | 947.94 | 28.8
298.15 K, x1 = 0.4009 | 976.09 | 31.1
298.15 K, x1 = 0.4994 | 998.72 | 32.5
298.15 K, x1 = 0.5998 | 1017.54 | 35
298.15 K, x1 = 0.6976 | 1033.57 | 37.7
298.15 K, x1 = 0.7974 | 1046.31 | 40.7
298.15 K, x1 = 0.903 | 1058.35 | 45.2
298.15 K, x1 = 1 | 1068.83 | 55.7
303.15 K, x1 = 0.1001 | 861.04 | 25.2
303.15 K, x1 = 0.2008 | 908.45 | 26.7
303.15 K, x1 = 0.3008 | 944.53 | 28.4
303.15 K, x1 = 0.4009 | 972.76 | 30.7
303.15 K, x1 = 0.4994 | 995.47 | 32.2
303.15 K, x1 = 0.5998 | 1014.34 | 34.7
303.15 K, x1 = 0.6976 | 1030.42 | 37.4
303.15 K, x1 = 0.7974 | 1043.18 | 40.4
303.15 K, x1 = 0.903 | 1055.25 | 45
303.15 K, x1 = 1 | 1065.76 | 55.5
308.15 K, x1 = 0.1001 | 857.28 | 24.7
308.15 K, x1 = 0.2008 | 904.9 | 26.4
308.15 K, x1 = 0.3008 | 941.11 | 28.1
308.15 K, x1 = 0.4009 | 969.44 | 30.4
308.15 K, x1 = 0.4994 | 992.23 | 31.7
308.15 K, x1 = 0.5998 | 1011.15 | 34.4
308.15 K, x1 = 0.6976 | 1027.27 | 37.1
308.15 K, x1 = 0.7974 | 1040.07 | 40.1
308.15 K, x1 = 0.903 | 1052.16 | 44.7
308.15 K, x1 = 1 | 1062.7 | 55.2
313.15 K, x1 = 0.1001 | 853.51 | 24.4
313.15 K, x1 = 0.2008 | 901.33 | 26
313.15 K, x1 = 0.3008 | 937.71 | 27.7
313.15 K, x1 = 0.4009 | 966.13 | 30
313.15 K, x1 = 0.4994 | 989 | 31.5
313.15 K, x1 = 0.5998 | 1007.98 | 34.1
313.15 K, x1 = 0.6976 | 1024.14 | 36.8
313.15 K, x1 = 0.7974 | 1036.96 | 39.8
313.15 K, x1 = 0.903 | 1049.09 | 44.4
313.15 K, x1 = 1 | 1059.66 | 54.9
318.15 K, x1 = 0.1001 | 849.73 | 24
318.15 K, x1 = 0.2008 | 897.78 | 25.6
318.15 K, x1 = 0.3008 | 934.3 | 27.3
318.15 K, x1 = 0.4009 | 962.85 | 29.6
318.15 K, x1 = 0.4994 | 985.79 | 31.2
318.15 K, x1 = 0.5998 | 1004.82 | 33.8
318.15 K, x1 = 0.6976 | 1021.02 | 36.6
318.15 K, x1 = 0.7974 | 1033.88 | 39.5
318.15 K, x1 = 0.903 | 1046.03 | 44.1
318.15 K, x1 = 1 | 1056.64 | 54.5
